Data published in US20260234157A1, “COMPOUND AND METHOD FOR TARGETED DEGRADATION OF ANDROGEN RECEPTOR” (Gan & Lee Pharmaceuticals Co., Ltd., priority 2023, published 2026).
Positions count from the first letter of the chain named. Like-named read-outs stand apart in the source and are kept apart here.

Experiments:
Format in all cases: cell-based
AR protein [1] = biological target: T1, AR protein (Homo sapiens, UniProt P10275, T878A); assay: Degradation of AR protein in LNCaP cells (Western blot); conditions: for inhibition at 0.01 µM: read-out: Degradation rates of the AR protein in LNCaP cells, 10 nM (%); for inhibition at 0.1 µM: read-out: Degradation rates of the AR protein in LNCaP cells, 100 nM (%)
T1 construct: degradation activity of the compounds disclosed in the present disclosure on AR protein in LNCaP cells; host or cells: LNCaP FGC
T1 sequence (P10275 1-920 T878A): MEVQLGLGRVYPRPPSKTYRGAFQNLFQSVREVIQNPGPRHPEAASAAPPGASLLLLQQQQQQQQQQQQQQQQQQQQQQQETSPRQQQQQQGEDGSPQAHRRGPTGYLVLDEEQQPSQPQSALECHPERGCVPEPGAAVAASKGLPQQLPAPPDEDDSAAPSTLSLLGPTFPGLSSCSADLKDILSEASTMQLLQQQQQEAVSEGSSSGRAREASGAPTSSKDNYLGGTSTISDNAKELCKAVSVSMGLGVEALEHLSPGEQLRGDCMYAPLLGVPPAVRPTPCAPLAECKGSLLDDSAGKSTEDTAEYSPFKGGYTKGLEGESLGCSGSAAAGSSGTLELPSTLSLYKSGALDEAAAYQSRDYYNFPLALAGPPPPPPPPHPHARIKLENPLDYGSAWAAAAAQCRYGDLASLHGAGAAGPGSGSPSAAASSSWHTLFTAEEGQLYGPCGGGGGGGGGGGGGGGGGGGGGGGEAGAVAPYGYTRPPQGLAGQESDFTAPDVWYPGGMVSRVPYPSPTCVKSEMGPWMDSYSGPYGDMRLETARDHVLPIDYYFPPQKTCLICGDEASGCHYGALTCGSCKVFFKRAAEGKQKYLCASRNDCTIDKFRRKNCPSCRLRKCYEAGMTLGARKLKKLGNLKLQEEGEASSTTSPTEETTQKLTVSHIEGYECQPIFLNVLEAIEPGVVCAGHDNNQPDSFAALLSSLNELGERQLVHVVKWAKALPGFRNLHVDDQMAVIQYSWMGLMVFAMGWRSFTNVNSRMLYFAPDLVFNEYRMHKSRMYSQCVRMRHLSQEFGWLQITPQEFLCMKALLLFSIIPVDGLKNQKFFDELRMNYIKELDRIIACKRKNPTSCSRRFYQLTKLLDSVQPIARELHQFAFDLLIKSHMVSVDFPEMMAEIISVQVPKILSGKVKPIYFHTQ
How it was run: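 Percent AR degradation was derived from GAPDH-normalised Western blot band intensities (infrared detection) in LNCaP lysates.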

AR protein [2] = biological target: T2, AR protein (Homo sapiens, UniProt P10275); assay: Degradation of AR protein in VCaP cells (Western blot); conditions: 8 hours; for inhibition at 0.01 µM: compound at 10 nM, read-out: Degradation rate of the AR protein in VCaP cells, 10 nM (%); for inhibition at 0.1 µM: compound at 100 nM, read-out: Degradation rate of the AR protein in VCaP cells, 100 nM (%)
T2 construct: degradation activity of the compounds disclosed in the present disclosure on AR protein in VCaP cells; host or cells: VCaP
T2 sequence (P10275 1-920): T1 sequence (P10275 1-920 T878A) with A878T
How it was run: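 Western blot readout: AR band grayscale normalised to GAPDH, used to derive degradation rate. Lysates came from VCaP cells exposed to compound for 8 h, with solvent controls run in parallel.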

LNCaP FGC cells = assay: Inhibition of proliferation of LNCaP cells (WST-8)
Method: The cells were cultured in a cell culture incubator with 5% CO2 at 37° C. overnight. […] On the sixth day, 96 well plates were taken out, and 20 μL of WST-8 (Beytime, C0040) reagent was added to each well.

VCaP cells = assay: Inhibition of proliferation of VCaP cells (WST-8); conditions: Homo sapiens, read-out: IC50 for inhibiting the proliferation of VCaP cells
How it was run: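 Proliferation was read by WST-8 on day nine. Cells were VCaP FGC, seeded at 15000 cells per well in 10% FBS DMEM and kept at 37° C with 5% CO2.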

[3] = LNCaP cells, compound 10 nM, 8 hours, Western blot grayscale, GAPDH internal reference
[4] = LNCaP cells, compound 100 nM, 8 hours, Western blot grayscale, GAPDH internal reference
[5] = Homo sapiens, LNCaP, 96 h, LNCaP FGC cells, 96 hours, WST-8 absorbance at 450 nm, read-out: IC50 for inhibiting the proliferation of LNCaP cells
[6] = VCaP cells, 168 hours, WST-8 absorbance at 450 nm
[7] = Homo sapiens, LNCaP, 96 h, read-out: IC50 for inhibiting the proliferation of LNCaP cells, LNCaP FGC cells, 96 hours, WST-8 absorbance at 450 nm

| SMILES | inhibition at 0.01 µM (AR protein [1]; [3]) [%] | inhibition at 0.1 µM (AR protein [1]; [4]) [%] | IC50 (LNCaP FGC cells; [5]) [nM] | IC50 (VCaP cells; [6]) [nM] | IC50 (LNCaP FGC cells; LNCaP FGC cells, 96 hours, WST-8 absorbance at 450 nm, read-out: IC50 for inhibiting the proliferation of LNCaP cells) [nM] | inhibition at 0.01 µM (AR protein [2]) [%] | inhibition at 0.1 µM (AR protein [2]) [%] | inhibition at 0.01 µM (AR protein [1]; LNCaP, 8 h) [%] | inhibition at 0.1 µM (AR protein [1]; LNCaP, 8 h) [%] | IC50 (LNCaP FGC cells; [7]) [nM] | IC50 (VCaP cells; VCaP, 168 h) [nM] |
| --- | --- | --- | --- | --- | --- | --- | --- | --- | --- | --- | --- |
| CCC1(CN2CCC3(CC2)COc2c3ccc3c2C(=O)N(C2CCC(=O)NC2=O)C3=O)CCN(c2ccc(C(=O)N[C@H]3CC[C@H](Oc4ccc(C#N)c(C(F)(F)F)c4)CC3)nn2)CC1 (stereo partly drawn) [Compound 248] | -53 | -16 | 5990 | 210 | – | 2 | 17 | – | – | – | – |
| C[C@H]1CN(c2ccc(C(=O)N[C@H]3CC[C@H](Oc4ccc(C#N)c(Cl)c4)CC3)nn2)C[C@@H]1CN1CCC2(CC1)COc1c2ccc2c1CN(C1CCC(=O)NC1=O)C2=O (stereo partly drawn) [Compound 212] | 79 | 70 | 320 | 1 | – | 60 | 82 | – | – | – | – |
| N#Cc1ccc(O[C@H]2CC[C@H](NC(=O)c3ccc(N4CC(N5CCC6(CCc7ccc8c(c7O6)CN(C6CCC(=O)NC6=O)C8=O)CC5)C4)nn3)CC2)cc1Cl (stereo partly drawn) [Compound 172] | – | – | – | – | – | -9 | -14 | 12 | 33 | 91400 | 78800 |
| N#Cc1ccc(O[C@H]2CC[C@H](NC(=O)c3ccc(N4CCN(C(=O)CN5CCC6(CC5)COc5c6ccc6c5CN(C5CCC(=O)NC5=O)C6=O)CC4)nn3)CC2)cc1Cl (stereo partly drawn) [Compound 233] | 49 | 62 | 34300 | 43 | – | 74 | 87 | – | – | – | – |
| COc1cc(O[C@H]2C(C)(C)[C@H](NC(=O)c3ccc(N4CCC(C#N)(CN5CCC6(CC5)COc5c6ccc6c5C(=O)N(C5CCC(=O)NC5=O)C6=O)CC4)cc3)C2(C)C)ccc1C#N (stereo partly drawn) [Compound 207] | 28 | 40 | 870 | 38 | – | -46 | 37 | – | – | – | – |
| COc1cc(O[C@H]2C(C)(C)[C@H](NC(=O)c3ccc(N4CCC(F)(CN5CCC6(CC5)COc5c6ccc6c5C(=O)N(C5CCC(=O)NC5=O)C6=O)CC4)cc3)C2(C)C)ccc1C#N (stereo partly drawn) [Compound 275] | 30 | 54 | 240 | 20 | – | 7 | 51 | – | – | – | – |
| N#Cc1ccc(O[C@H]2CC[C@H](NC(=O)c3ccc(N4CC(N5CCC6(CC5)COc5c(ccc7c5C(=O)N(C5CCC(=O)NC5=O)C7)C6)C4)nn3)CC2)cc1Cl (stereo partly drawn) [Compound 191] | – | – | – | – | – | 31 | 68 | -2 | 4 | 15200 | > 90000 |

Now from value to compound, other results behind:

| inhibition at 0.01 µM (AR protein [1]; [3]) [%] | inhibition at 0.1 µM (AR protein [1]; [4]) [%] | IC50 (LNCaP FGC cells; [5]) [nM] | IC50 (VCaP cells; [6]) [nM] | IC50 (LNCaP FGC cells; LNCaP FGC cells, 96 hours, WST-8 absorbance at 450 nm, read-out: IC50 for inhibiting the proliferation of LNCaP cells) [nM] | SMILES | inhibition at 0.01 µM (AR protein [2]) [%] | inhibition at 0.1 µM (AR protein [2]) [%] | inhibition at 0.01 µM (AR protein [1]; LNCaP, 8 h) [%] | inhibition at 0.1 µM (AR protein [1]; LNCaP, 8 h) [%] | IC50 (LNCaP FGC cells; [7]) [nM] | IC50 (VCaP cells; VCaP, 168 h) [nM] |
| --- | --- | --- | --- | --- | --- | --- | --- | --- | --- | --- | --- |
| 49 | 25 | 1760 | 2 | – | COc1cc(O[C@H]2CC[C@H](NC(=O)c3ccc(N4CCC(F)(CN5CC6(CCc7cc8c(cc7O6)CN(C6CCC(=O)NC6=O)C8=O)C5)CC4)nn3)CC2)ccc1C#N (stereo partly drawn) [Compound 209] | 39 | 67 | – | – | – | – |
| 42 | 40 | 61400 | 2 | – | COc1cc(O[C@H]2C(C)(C)[C@H](NC(=O)c3ccc(N4CCC(CN5CC6(CCc7cc8c(cc7O6)CN(C6CCC(=O)NC6=O)C8=O)C5)CC4)cc3)C2(C)C)ccc1C#N (stereo partly drawn) [Compound 297] | 47 | 81 | – | – | – | – |
| 57 | 70 | 1120 | 4200 | – | N#Cc1ccc(O[C@H]2CC[C@H](NC(=O)c3ccc(N4CCC5(CCC(N6CCC7(CCc8cc9c(cc8O7)C(=O)N(C7CCC(=O)NC7=O)C9=O)CC6)CC5)C4)nn3)CC2)cc1Cl (stereo partly drawn) [Compound 34] | 39 | 51 | – | – | – | – |
| 37 | 60 | 15 | 190 | – | N#Cc1ccc(O[C@H]2CC[C@H](NC(=O)c3ccc(N4CCC(F)(CN5CCC6(CC5)COc5cc7c(cc5C6)C(=O)N(C5CCC(=O)NC5=O)C7=O)CC4)nn3)CC2)cc1Cl (stereo partly drawn) [Compound 67] | 43 | 72 | – | – | – | – |
| 45 | 18 | – | > 90000 | 80100 | COC1(CN2CCC3(CCc4ccc5c(c4O3)CN(C3CCC(=O)NC3=O)C5=O)CC2)CCN(c2ccc(C(=O)N[C@H]3CC[C@H](Oc4ccc(C#N)c(Cl)c4)CC3)nn2)CC1 (stereo partly drawn) [Compound 167] | 33 | 67 | – | – | – | – |
| 41 | 64 | 2400 | 4400 | – | N#Cc1ccc(O[C@H]2CC[C@H](NC(=O)c3ccc(N4CCC5(CC4)COc4cc6c(cc4C5)C(=O)N(C4CCC(=O)NC4=O)C6=O)nn3)CC2)cc1Cl (stereo partly drawn) [Compound 60] | 41 | 64 | – | – | – | – |
| 16 | 60 | 10700 | 73 | – | COc1cc(O[C@H]2C(C)(C)[C@H](NC(=O)c3ccc(N4CCC(CN5CC6(CCc7cc8c(cc7O6)C(=O)N(C6CCC(=O)NC6=O)C8=O)C5)CC4)cc3)C2(C)C)ccc1C#N (stereo partly drawn) [Compound 277] | 7 | 54 | – | – | – | – |
